# Source: publication PMC4414571, “Peptides of Presenilin-1 Bind the Amyloid Precursor Protein Ectodomain and Offer a Novel and Specific Therapeutic Approach to Reduce ß-Amyloid in Alzheimer’s Disease” (PLoS ONE, 2015)
# Ends that are not written are not given here.
# Columns and labels:
# [1] = test system: NICD / γ-secretase in Jurkat cells; test: NICD levels in extracts of Jurkat cells by ELISA (γ-secretase activity); conditions: 0–10 μM, 24 h, 450 nm, percent control, n = 2–3
# Procedure: Jurkat cells (Sigma) were cultured in RPMI 1640 medium supplemented with 10% FCS, 2 mM L-glutamine, penicillin and streptomycin at 37°C in the presence of 5% CO2. […] After harvesting the cells, extracts were prepared by sonication in lysis buffer (Cell Signaling Technologies) supplemented with 1mM PMSF and complete protease inhibitor cocktail (Roche). The solubilized extracts were then used in ELISA assays to determine NICD levels, as a measure of γ-secretase activity, using the PathScan Cleaved Notch 1 (Val 1744) sandwich ELISA kit (Cell Signaling Technologies) according to the manufactuer’s protocols.
# [2] = target: T1, soluble ectodomain of APP (APPs, APP 695) (Homo sapiens, UniProt P05067); test: Biolayer interferometry, biotinylated peptides on streptavidin biosensors vs purified soluble APP (APPs); assay type: binding; conditions: 30°C, biotinylated peptide on SA biosensors
# T1 construct: host or cells: Sf9 insect cells (baculovirus), conditioned medium
# Procedure: Sf9 cells (ATCC CRL 1711) were grown in TMN-FH complete medium (Pharmingen) in suspension and infected at a multiplicity of infection of 2 with a titred stock of recombinant virus expressing human APP695. Conditioned media and/or cells were harvested 6 days after infection. Cells and debris were removed by centrifugation (at 1000 x g for 15 min).
# Recombinant baculoviruses were produced according to published protocols. A fragment containing full-length APP 695 was subcloned into the baculovirus transfer vector pBlueBac3 (Invitrogen). The resulting recombinant vector was co-transfected with baculovirus DNA into sf9 cells. Recombinant APP expression was verified by Western blot hybridization using mouse MAb against human APP (Cat # MAB348, Millipore).
# APPs was purified from baculovirus conditioned medium to >95% purity, as assessed by densitometry analysis of Coomassie stained SDS PAGE gels, by Arvys Proteins, Stamford, CT, using the following strategy. The conditioned medium proteins were purified by heparin-affinity chromatography, followed by two gel filtration chromatography steps over HiPrep Sephacryl S300 columns and two steps of anion exchange chromatography on HiTrapQ columns.
# The binding affinities of peptides P1, scrambled P1, P4, P5, P7 and P8 for the soluble ectodomain of APP or control IgG were measured by biolayer interferometry on an Octet RED96 System (Pall FortéBio Corp., Menlo Park, CA). This system monitors interference of light reflected from two sources (an internal reflection surface and the liquid/solid interface of a fiber optic sensor) to measure the rate of binding of molecules to the biosensor surface.
# Peptides were synthesized and biotinylated at the NH2-terminus by Dr. Michael Freydkin at Biopeptides, Inc., San Diego, CA, and purified to >95% by HPLC. Biotinylated peptides were loaded onto Streptavidin (SA) biosensors (Pall FortéBio Corp.) at empirically determined concentrations. All affinity measurements were carried out in Kinetics Buffer (KB) (1X PBS, 0.002% Tween-20, and 0.01% BSA) at 30°C. Typically, the biosensors were pre-equilibrated in KB for 120s, loaded with a biotinylated peptide at optimal concentrations and times, quenched with 10 μg/ml biocytin in KB for 180s, brought to baseline in KB for 120s and transferred to wells containing purified APPs (0–200 nM). Multiple negative controls were run for each peptide including association buffer only (no APP) or with IgG replacing APP. Binding kinetics were calculated using the FortéBio Data Analysis v7.1 software. The association (k on) and dissociation (k off) rate constants were obtained by fitting the association and dissociation data to a 1:1 model. Binding affinity, KD, was calculated as k off/k on.
# [3] = ref evidence that will be presented elsewhere, cited from earlier work
# Source text: Two types of technologies have largely been pursued in the field thus far in efforts to reduce the levels of Aβ: β- or γ- secretase inhibitors or modulators, and the use of Aβ-specific monoclonal antibodies. Neither approach has been entirely successful, and γ-secretase inhibitors have been particularly problematic because of off-target effects due to the inhibition of their other substrates, Notch in particular.
# [4] = test system: NICD (γ-secretase activity); test: NICD levels in neocortex of treated mThy1-hAPP mice by Western blot (γ-secretase activity); assay type: in vivo, mouse; conditions: peptide-infused mThy1-hAPP mice vs PBS, n = 5, two weeks after end of treatment
# Procedure: Extracts of neocortex of mThy1-hAPP mice treated with P4, P8 or PBS only were electrophoresed on SDS gels and Western blotted with primary rabbit antibodies against NICD (Cat# 07–1232, Millipore) at 4°C overnight, followed by horse-radish peroxidase (HRP)-conjugated goat anti-rabbit IgG (Bio-Rad). The immunoreactive bands were detected by chemiluminescence (Thermo Scientific).
# An optimal therapeutic approach to AD would avoid producing serious effects on other biochemically and physiologically important processes, as would occur if the cleavages of any of the other substrates of β- or γ-secretase were affected in the process of reducing the levels of Aβ. An especially well-studied example is the γ-secretase activity of PS-1 that is critically involved in the final enzymatic cleavage of Aβ from APP; it also functions in an essential developmental process that generates NICD from Notch. […] At the same time we analyzed the same tissue samples for their β-secretase (BACE-1) activity and APP expression. Extracts were prepared of the neocortex of Tg mice that had been treated with P4, P8 or PBS, and the levels of NICD were determined by Western blot analysis with a primary rabbit Ab against NICD. […]
# BACE-1 in IMR-32 cells = test: BACE-1 activity in extracts of cultured IMR-32 cells; assay type: cell-based, human; conditions: 0–5 μM, 24 h, SensiZyme kit, 405 nm, percent control, n = 2–3
# Procedure: IMR-32 cells in culture were treated with peptides P4, P8 and scrambled peptide P1 (0–5 μM) or the BACE-1 inhibitor […] (Selleck Chemicals) (0–500 nM) for 24 h. Cells were harvested and extracts prepared by sonication and solubilization in cell lysis buffer containing 1% Triton X-100 and EDTA (Cell Signaling Technologies) and supplemented with complete protease inhibitor cocktail (Roche) according to the manufacturer’s protocols. BACE-1 activity was measured as already described above using the SensiZyme BACE-1 activity assay kit.
# [5] = test system: IMR-32 human neuroblastoma cell-line (endogenous Aβ40 or 42 production); test: Endogenous Aβ40 and 42 production in IMR-32 culture medium by ELISA; assay type: cell-based
# Procedure: A human neuroblastoma cell-line, IMR-32 (ATCC CCL-127) was cultured in MEM Earles medium containing 10% fetal bovine serum, 2 mM L-glutamine in the presence of penicillin and streptomycin. Equal numbers of cells (0.3 x 10^6 per well) were plated on 6-well plates overnight. Peptides (0–5 μM) were added to fresh culture medium (500 μl per well) and left in the incubator for 24 hours, after which the culture medium from each well was removed and stored at -80°C in the presence of 4-(2-Aminoethyl) benzenesulfonyl fluoride hydrochloride (AEBSF) and protease inhibitors. Prior to use, the culture medium was centrifuged in an eppendorf microfuge for 5 min at 4°C, the supernatant diluted with an equal volume of sample diluent buffer (Wako) and analyzed for the presence of Aβ40 or 42 using a commercial ELISA kit (Wako).
# T1 sequence (P05067 18-612 isoform P05067-4 limits assumed): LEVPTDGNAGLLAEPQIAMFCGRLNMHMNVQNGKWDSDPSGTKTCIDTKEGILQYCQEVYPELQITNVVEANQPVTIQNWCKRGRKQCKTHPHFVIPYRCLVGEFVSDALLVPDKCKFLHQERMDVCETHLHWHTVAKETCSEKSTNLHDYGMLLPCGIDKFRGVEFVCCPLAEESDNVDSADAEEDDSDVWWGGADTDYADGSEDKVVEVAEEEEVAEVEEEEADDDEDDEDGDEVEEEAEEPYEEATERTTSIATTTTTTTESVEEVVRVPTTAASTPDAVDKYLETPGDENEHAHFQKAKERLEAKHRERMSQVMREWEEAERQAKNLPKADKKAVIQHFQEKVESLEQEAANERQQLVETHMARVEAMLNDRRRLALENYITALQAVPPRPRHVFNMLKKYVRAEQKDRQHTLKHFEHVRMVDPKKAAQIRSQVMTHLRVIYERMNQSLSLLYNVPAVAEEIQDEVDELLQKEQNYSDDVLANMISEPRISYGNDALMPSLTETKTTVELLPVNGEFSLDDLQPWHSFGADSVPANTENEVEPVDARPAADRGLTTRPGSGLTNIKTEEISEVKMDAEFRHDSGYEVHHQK
Sequence,"NICD levels in Jurkat cells, peptides (in words) [1]","koff ([2]; 1:1 model, Kinetics Buffer)","kon ([2]; 1:1 model, Kinetics Buffer)","Kd ([2]; k off/k on, 1:1 model, Kinetics Buffer (1X PBS, 0.002% Tween-20, 0.01% BSA))",Stability (in words) ([3]; matrix not stated),Brain delivery (in words) ([3]; rats),NICD levels in neocortex (in words) [4],"BACE-1 activity in IMR-32 cells, peptides (in words) (BACE-1 in IMR-32 cells)",Binding to purified APPs (in words) ([2]; Kinetics Buffer),"Effect on Aβ40 and 42 production in vitro (in words) ([5]; 0–5 μM peptide, 24 h, IMR-32 culture medium, ELISA)","Production of total Aβ and of Aβ 40 and 42 (summary in words) ([5]; Discussion summary, stated as in vitro and in vivo (mThy1-hAPP Tg mice))"
DEEEDEEL [Peptide P8],no appreciable change in the levels of NICD,0.00306 s⁻¹,886000 M⁻¹ s⁻¹,3.45 nM,stable,can be successfully delivered to the brain in rats,not accompanied by any significant changes in the levels of NICD,–,–,–,–
"PTERLLKGTVRLKQQLDQDESDARNLRNNLNPQRGFMALDESERHENRSAMQVESHQNPHPPYETEQENDEGSGSEYSNV [SP1, scrambled P1, control peptide]",–,–,–,–,–,–,–,remained essentially unchanged,no significant binding to APP,no significant changes in Aβ levels,did not reduce Aβ
